In ChEMBL document CHEMBL1138279, “Platelet-activating factor (PAF) receptor binding antagonists from Alpinia officinarum” (Bioorg Med Chem Lett, 2007):

Experiment: Displacement of [3H]PAF from rabbit PAF receptor
Set-up: species or system Oryctolagus cuniculus

Question: Which IC50 does the source give for O=C(/C=C/CCc1ccccc1)CCc1ccccc1 here?
Answer: 5 µM

Question: For COC(CCc1ccccc1)CC(=O)CCc1ccccc1 (stereo not drawn), which IC50 is on record?
Answer: 1.6 µM

Question: With O=C(/C=C/C(O)Cc1ccccc1)CCc1ccccc1 (stereo not drawn) as the compound, how does the IC50 read?
Answer: 1.3 µM
